Experimental data from patent US11104926B1, “Pro-fluorophore compounds and use thereof” (Vanderbilt University, priority 2018, dated 2021).
Entries after “also recorded” stand apart in the source; their conditions may differ.

Experiments:
[1] = tested on: porcine liver esterase (PLE); experiment: In vitro activation of rhodamine-amide pro-fluorophores by PLE (kinetic fluorescence plate assay); type: biochemical; details: for conversion to the fluorescent Rhodamine 110 by PLE (in words): 10 μM, 2 min, 22° C., 30 nM PLE (FIG. 2B); for Km: Table 1, PLE activation; for quality as PLE substrate (in words): in vitro and in cells, comparison within the library
Description: To investigate the ability of PLE to activate various rhodamine-amide pro-fluorophores, the compounds were dissolved in DMSO to a concentration of 100 mM and serially diluted in DMSO in 10, 3-fold steps. The compounds were then added to the well of a low volume, cyclic olefin copolymer 384-well plate (Labcyte). Forty nL/well of pro-fluorophore solution were transferred to black-walled, clear-bottom, polystyrene 384-well plates (Greiner) using an Echo plate reformatter (Labcyte). Following compound transfer, […] of phosphate-buffered saline (PBS) was added to each well and thoroughly mixed. PLE (Sigma, 46058) dissolved in PBS at a concentration of 60 nM and 40 μL of this solution was added to the wells of a polypropylene 384-well plate (Greiner). Pro-fluorophore-containing and PLE-containing plates were placed in a Panoptic kinetic imaging plate reader (WaveFront Biosciences). Images were acquired at 1 Hz (excitation 480±20 nm and 540±30 nm) for 30 seconds, then 20 μL/well of the PLE solutions were added to the pro-fluorophore-containing plates and imaging continued for an additional 15 minutes. In addition to the pro-fluorophore-containing plates, a plate containing PBS only was imaged as was a plate containing a concentration series of Rhodamine 110.

[2] = tested on: HEK293 cells stably expressing PLE; experiment: Pro-fluorophore activation in PLE-expressing HEK293 cells (kinetic imaging plate reader); type: cell-based; details: for rank of fold increase in fluorescence in cells (in words) / Fold Increase in Fluorescence: 10 μM; for rank of fold increase in fluorescence in cells (in words): PLE-expressing vs wild-type HEK293 (Table 2); for Fold Increase in Fluorescence: PLE-expressing HEK293 divided by wild-type HEK293, 5 min after addition, mean (SEM) of 4 replicates
From the text: Cell-based assays. To construct a PLE-expressing HEK293 cell line, a PLE-IRES-mCherry construct was excised from the pCAG-PLE-IRES-mCherry (Addgene plasmid #45766) vector using Not1-HF and Xho1 (Tian et al., Proceedings of the National Academy of Sciences, 2012, 109, 4756-4761). The PLE-IRES-mCherry insert was then cloned into pcDNA3.1/Zeo vector (Thermo Fisher Scientific). The pcDNA3.1/Zeo PLE-IRES-mCherry vector was introduced to HEK293 (ATCC) using FuGENE HD (Promega). PLE-expressing cells were selected for using Zeocin.
(§1) Wild-type HEK293 and PLE-expressing HEK293 cells maintained in α-MEM (Corning) containing 10% vol/vol fetal bovine serum (Thermo-Fisher Scientific) and 1% vol/vol GlutaGro (Corning) (cell culture medium) were seeded with 20,000 cells/well in 20 μL of cell culture medium into amine-coated, clear-bottom, and black-walled 384-well plate (BD Biosciences). Plates were then incubated overnight at 37° C. in a 5% CO2 cell culture incubator. Following overnight incubation, cell culture medium was removed and replaced with 20 μL/well assay buffer. Rhodamine-amide profluorophores dissolved in DMSO at 10 mM were diluted into assay buffer at concentrations ranging from 50 μM-70 nM. Forty μL/well of pro-fluorophore solutions were placed in polypropylene 384-well plates (Greiner). Immediately before the beginning of data acquisition, the assay buffer was removed from the cell-containing plates. The cell-containing and pro-fluorophore containing plates where then immediately loaded into a Panoptic kinetic imaging plate reader. Images were acquired at 1 Hz (excitation 480±20 nm and 540±30 nm) for 30 seconds, then 20 μL/well of the pro-fluorophore solutions were added to the cell-containing plates and imaging continued for an additional 15 minutes.

wild-type HEK293 cells [3] = experiment: Pro-fluorophore activation in wild-type HEK293 cells (kinetic imaging plate reader); type: cell-based; details: 3 μM (FIG. 3A)
Description: as §1

[4] = tested on: HEK293 cells expressing PLE; experiment: Confocal fluorescence microscopy of PLE-expressing HEK293 cells; type: cell-based; details: treated 1 h at 22° C. (FIG. 4 panels a-c)
Description: (§2) Microscopy. Confocal images were acquired using a Nikon MR (Nikon Instruments) laser scanning confocal microscope equipped with plan apochromat violet corrected 1.4 numerical aperture (N.A.) oil immersion lens. Hoescht images were obtained using a 405 nm laser and 425-475 nm emission filter. Pro-fluorophore (1c) was imaged using a 488 nm laser and 500-550 nm emission filter. Cells for imaging study were cultured overnight on no. 1 chambered slides (lab-tek II, ThermoFisher) in medium previously described in kinetic imaging assays. Medium was removed and pro-fluorophore was added to the slide chambers in assay buffer containing Hoescht, 1 μg/mL. […]

wild-type HEK293 cells [5] = experiment: Confocal fluorescence microscopy of wild-type HEK293 cells; type: cell-based; details: treated 1 h at 22° C. (FIG. 4 panels d-f)
Description: as §2

[6] = listed as N,N′-dipropionyl rhodamine

Row | SMILES | conversion to the fluorescent Rhodamine 110 by PLE (in words) [1] | Km [1] [µM] | quality as PLE substrate (in words) [1] | rank of fold increase in fluorescence in cells (in words) [2] | Fold Increase in Fluorescence [2] | also measured
1 | O=C1OC2(c3ccc(NC(=O)C(F)(F)F)cc3Oc3cc(NC(=O)C(F)(F)F)ccc32)c2ccccc21 [Compound 1a, N,N′ bis-triflouroacetyl rhodamine] | most effective conversion | 2.06 | good PLE substrates | largest fold increase in fluorescence | 5701 (±26.4) | quality as PLE substrate (in words) ([1]; listed as N,N′-ditrifluoroacetyl): better substrates than the others; rank of fold increase in fluorescence in cells (in words) ([2]; listed as N,N′-ditrifluoroacetyl rhodamine): largest increase in fluorescence
2 | CC(=O)Nc1ccc2c(c1)Oc1cc(NC(C)=O)ccc1C21OC(=O)c2ccccc21 [Compound 1b, N,N′-bis-acetyl rhodamine] |  |  | less preferred substrate; also recorded: poor substrate |  | 37 (±0.2) | 
3 | CCC(=O)Nc1ccc2c(c1)Oc1cc(NC(=O)CC)ccc1C21OC(=O)c2ccccc21 [Compound 1c, N,N′-bis-propionyl rhodamine] | most effective conversion |  | good PLE substrates | largest fold increase in fluorescence | 725 (±2.1) | quality as PLE substrate (in words) [1, 6]: better substrates than the others; fluorescence upon addition to PLE-expressing HEK293 cells (in words) ([2]; 3 μM, 384-well plate (FIG. 3A)): rapid increase in fluorescence; fluorescence upon addition to wild-type HEK293 cells (in words) (wild-type HEK293 cells [3]): no increase in fluorescence was observed; confocal fluorescence in PLE-expressing HEK293 cells (in words) [4]: bright, predominantly cytoplasmic, fluorescence; confocal fluorescence in PLE-expressing HEK293 cells (in words) [4, 6]: bright, cytoplasmic fluorescence; confocal fluorescence in wild-type HEK293 cells (in words) (wild-type HEK293 cells [5]): no fluorescence was observed
4 | CC(C)C(=O)Nc1ccc2c(c1)Oc1cc(NC(=O)C(C)C)ccc1C21OC(=O)c2ccccc21 [Compound 1d, N,N′-bis-isobutyl rhodamine] |  |  |  |  | 458 (±1.6) | 
5 | CC(C)(C)C(=O)Nc1ccc2c(c1)Oc1cc(NC(=O)C(C)(C)C)ccc1C21OC(=O)c2ccccc21 [Compound 1e, N,N′-bis-pivaloyl rhodamine] |  |  |  |  | 87 (±0.4) | 
6 | O=C(Nc1ccc2c(c1)Oc1cc(NC(=O)c3ccccc3)ccc1C21OC(=O)c2ccccc21)c1ccccc1 [Compound 1f, N,N′-bis-benzoyl rhodamine] |  | 7.45 |  |  | 119 (±1.2) | 
